Reference: US8541588B2, “Sulfonamide derivatives” (Pfizer Limited, priority 2009, dated 2013)

target: T1, Nav1.7 (or SCN9A) channel; HEK cells stably transfected with hSCN9A (Homo sapiens, UniProt Q15858); experiment: Nav1.7 block, PatchXpress 7000 automated whole-cell voltage clamp, estimated IC50 (EIC50); type: cell-based; conditions: PatchXpress platform; hSCN9A HEK cells held at V1/2 of inactivation; estimated IC50
T1 construct: expressed in transfected cells
T1 sequence (Q15858 whole entry): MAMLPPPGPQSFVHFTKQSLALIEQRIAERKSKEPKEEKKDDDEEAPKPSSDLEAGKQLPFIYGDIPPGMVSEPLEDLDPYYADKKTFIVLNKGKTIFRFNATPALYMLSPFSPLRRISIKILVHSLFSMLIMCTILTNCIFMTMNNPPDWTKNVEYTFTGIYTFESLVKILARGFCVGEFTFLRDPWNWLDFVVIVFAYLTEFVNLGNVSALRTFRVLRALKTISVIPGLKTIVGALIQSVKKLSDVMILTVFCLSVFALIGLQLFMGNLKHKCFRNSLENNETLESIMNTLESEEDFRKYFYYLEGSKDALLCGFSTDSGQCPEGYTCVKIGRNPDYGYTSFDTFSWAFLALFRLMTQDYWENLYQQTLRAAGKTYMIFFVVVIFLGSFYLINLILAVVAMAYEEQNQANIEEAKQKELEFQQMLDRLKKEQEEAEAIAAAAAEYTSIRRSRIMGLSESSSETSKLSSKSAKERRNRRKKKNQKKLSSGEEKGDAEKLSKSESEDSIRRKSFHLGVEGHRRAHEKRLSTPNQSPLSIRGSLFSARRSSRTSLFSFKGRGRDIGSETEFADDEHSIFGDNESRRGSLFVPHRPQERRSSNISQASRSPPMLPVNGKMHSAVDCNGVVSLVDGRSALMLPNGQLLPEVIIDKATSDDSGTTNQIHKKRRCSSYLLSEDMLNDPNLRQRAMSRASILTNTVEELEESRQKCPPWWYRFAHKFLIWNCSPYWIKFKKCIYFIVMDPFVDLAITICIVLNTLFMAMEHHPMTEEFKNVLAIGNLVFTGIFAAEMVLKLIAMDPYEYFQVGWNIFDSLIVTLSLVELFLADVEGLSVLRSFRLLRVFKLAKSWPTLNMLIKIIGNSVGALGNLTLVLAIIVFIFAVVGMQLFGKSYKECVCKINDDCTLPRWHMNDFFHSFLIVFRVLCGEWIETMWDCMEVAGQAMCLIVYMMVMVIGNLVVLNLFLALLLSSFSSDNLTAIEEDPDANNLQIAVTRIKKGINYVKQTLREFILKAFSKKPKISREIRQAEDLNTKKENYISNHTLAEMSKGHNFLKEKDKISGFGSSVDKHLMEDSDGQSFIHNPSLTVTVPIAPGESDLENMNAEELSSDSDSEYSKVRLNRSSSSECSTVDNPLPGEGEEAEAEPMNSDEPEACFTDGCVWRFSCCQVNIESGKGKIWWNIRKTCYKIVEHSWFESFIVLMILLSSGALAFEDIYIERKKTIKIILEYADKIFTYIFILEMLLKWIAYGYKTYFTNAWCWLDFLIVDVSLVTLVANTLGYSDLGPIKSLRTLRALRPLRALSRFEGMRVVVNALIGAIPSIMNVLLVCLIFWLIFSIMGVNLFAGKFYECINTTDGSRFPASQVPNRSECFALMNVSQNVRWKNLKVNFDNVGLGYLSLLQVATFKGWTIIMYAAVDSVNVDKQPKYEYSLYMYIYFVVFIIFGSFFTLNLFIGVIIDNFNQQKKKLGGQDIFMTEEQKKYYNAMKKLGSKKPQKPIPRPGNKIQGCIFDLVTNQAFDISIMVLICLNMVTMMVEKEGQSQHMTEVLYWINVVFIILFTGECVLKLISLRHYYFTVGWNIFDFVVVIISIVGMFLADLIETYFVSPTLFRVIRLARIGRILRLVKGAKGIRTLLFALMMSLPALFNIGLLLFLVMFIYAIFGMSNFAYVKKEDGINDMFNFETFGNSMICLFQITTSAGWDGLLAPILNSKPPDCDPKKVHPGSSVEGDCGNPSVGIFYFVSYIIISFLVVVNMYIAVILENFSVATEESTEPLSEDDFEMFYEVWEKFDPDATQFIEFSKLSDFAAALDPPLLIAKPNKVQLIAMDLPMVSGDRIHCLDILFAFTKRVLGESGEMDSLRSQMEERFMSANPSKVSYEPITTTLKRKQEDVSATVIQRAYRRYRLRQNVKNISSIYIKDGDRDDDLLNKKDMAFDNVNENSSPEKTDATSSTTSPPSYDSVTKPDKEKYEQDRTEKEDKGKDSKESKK

| IC50 [µM] | SMILES |
| --- | --- |
| 2.32 | N#Cc1cc(S(=O)(=O)Nc2cscn2)ccc1Oc1ccccc1-c1ccccc1 [Example 97, 4-(biphenyl-2-yloxy)-3-cyano-N-1,3-thiazol-4-ylbenzenesulfonamide] |
| 5.93 | Cc1cccc(-c2ccc(F)c(F)c2)c1Oc1ccc(S(=O)(=O)Nc2ncns2)cc1C#N [Example 44, 3-cyano-4-[(3′,4′-difluoro-3-methylbiphenyl-2-yl)oxy]-N-1,2,4-thiadiazol-5-ylbenzenesulfonamide] |
| 0.51 | N#Cc1cc(S(=O)(=O)Nc2ncns2)ccc1Oc1cc(C(F)(F)F)nn1-c1ccccc1 [Example 81, 3-cyano-4-{[1-phenyl-3-(trifluoromethyl)-1H-pyrazol-5-yl]oxy}-N-1,2,4-thiadiazol-5-ylbenzenesulfonamide] |
| 1.32 | COc1cc(S(=O)(=O)Nc2ncns2)ccc1Oc1ccccc1-c1ccccc1 [Example 262, 4-(biphenyl-2-yloxy)-3-methoxy-N-1,2,4-thiadiazol-5-ylbenzenesulfonamide] |
| 9.19 | Cc1nc(-c2ccccc2Oc2ccc(S(=O)(=O)Nc3nccs3)cc2F)cs1 [Example 130, 3-fluoro-4-[2-(2-methyl-1,3-thiazol-4-yl)phenoxy]-N-1,3-thiazol-2-ylbenzenesulfonamide] |
| 1.87 | O=S(=O)(Nc1nccs1)c1ccc(Oc2ccn(Cc3ccc(Cl)cc3)n2)c(F)c1 [Example 232, 4-[1-(4-chloro-benzyl)-1H-pyrazol-3-yloxy]-3-fluoro-N-thiazol-2-yl-benzenesulfonamide] |
| 0.78 | Cc1ccc(Oc2ccc(S(=O)(=O)Nc3ncns3)cc2C#N)c(-c2c(C)cnn2C)c1 [Example 27, 3-cyano-4-(2-(1,4-dimethyl-1H-pyrazol-5-yl)-4-methylphenoxy)-N-(1,2,4-thiadiazol-5-yl)benzenesulfonamide] |
| 5 | Cc1cn(Cc2ccccc2)nc1Oc1ccc(S(=O)(=O)Nc2ncc(Cl)s2)cc1C#N [Example 139, 4-[(1-benzyl-4-methyl-1H-pyrazol-3-yl)oxy]-N-(5-chloro-1,3-thiazol-2-yl)-3-cyanobenzenesulfonamide] |

same assay, conditions: estimated IC50; hSCN9A HEK cells, PatchXpress platform; Examples 283-814

| IC50 [µM] | SMILES |
| --- | --- |
| >30 | Cc1nc(-c2ccccc2Oc2ccc(S(=O)(=O)Nc3ccc(F)cn3)cc2C#N)cs1 [Example 572, 3-cyano-N-(5-fluoropyridin-2-yl)-4-[2-(2-methyl-1,3-thiazol-4-yl)phenoxy]benzenesulfonamide] |
| 0.025 | Cn1nc(C(F)(F)F)cc1-c1ccc(Oc2cc(F)c(S(=O)(=O)Nc3nccs3)cc2Cl)c(C#N)c1 [Example 296, 5-chloro-4-{2-cyano-4-[1-methyl-3-(trifluoromethyl)-1H-pyrazol-5-yl]phenoxy}-2-fluoro-N-1,3-thiazol-2-ylbenzenesulfonamide] |
| >1 | N#Cc1cc(S(=O)(=O)Nc2nccs2)ccc1Oc1ccc(-c2cc(C(F)(F)F)n(CCCF)n2)cc1F [Example 480, 3-cyano-4-{2-fluoro-4-[1-(3-fluoropropyl)-5-(trifluoromethyl)-1H-pyrazol-3-yl]phenoxy}-N-1,3-thiazol-2-ylbenzenesulfonamide] |
| 0.11 | O=S(=O)(Nc1nncs1)c1cc(Cl)c(Oc2ccc(Cl)cc2C2CCNCC2)cc1F [Example 765, 5-chloro-4-(4-chloro-2-piperidin-4-ylphenoxy)-2-fluoro-N-1,3,4-thiadiazol-2-ylbenzenesulfonamide] |
| 1.2 | N#Cc1cc(S(=O)(=O)Nc2cscn2)ccc1Oc1ccc(Cl)cc1-c1ccnn1C(F)(F)F [Example 399, 4-{4-chloro-2-[1-(trifluoromethyl)-1H-pyrazol-5-yl]phenoxy}-3-cyano-N-1,3-thiazol-4-ylbenzenesulfonamide] |
| 0.0063 | Cc1[nH]ncc1-c1cc(Cl)ccc1Oc1cc(F)c(S(=O)(=O)Nc2ncns2)cc1F [Example 635, 4-[4-chloro-2-(5-methyl-1H-pyrazol-4-yl)phenoxy]-2,5-difluoro-N-1,2,4-thiadiazol-5-ylbenzenesulfonamide] |
| 0.26 | Cn1nc(C(F)(F)F)cc1-c1ccc(Oc2cc(F)c(S(=O)(=O)Nc3nccs3)cc2F)cc1 [Example 678, 2,5-difluoro-4-{4-[1-methyl-3-(trifluoromethyl)-1H-pyrazol-5-yl]phenoxy}-N-1,3-thiazol-2-ylbenzenesulfonamide] |
| 2.5 | N#Cc1cc(S(=O)(=O)Nc2nccs2)ccc1Oc1cccc(-n2cccn2)c1 [Example 319, 3-cyano-4-[3-(1H-pyrazol-1-yl)phenoxy]-N-1,3-thiazol-2-ylbenzenesulfonamide] |
| 0.25 | Cn1nc(C(F)(F)F)cc1-c1ccc(Oc2ccc(S(=O)(=O)Nc3nccs3)cc2C#N)c(F)c1 [Example 330, 3-cyano-4-{2-fluoro-4-[1-methyl-3-(trifluoromethyl)-1H-pyrazol-5-yl]phenoxy}-N-1,3-thiazol-2-ylbenzenesulfonamide] |
| 0.14 | COc1ccc(-c2ccnn2C)c(Oc2ccc(S(=O)(=O)Nc3nccs3)cc2C#N)c1 [Example 541, 3-cyano-4-[5-methoxy-2-(1-methyl-1H-pyrazol-5-yl)phenoxy]-N-1,3-thiazol-2-ylbenzenesulfonamide] |
| 0.093 | Cn1nc(C(F)(F)F)cc1-c1ccc(Oc2ccc(S(=O)(=O)Nc3ncns3)cc2C#N)c(C#N)c1 [Example 293, 3-cyano-4-{2-cyano-4-[1-methyl-3-(trifluoromethyl)-1H-pyrazol-5-yl]phenoxy}-N-1,2,4-thiadiazol-5-ylbenzenesulfonamide] |
| 0.0058 | O=S(=O)(Nc1cscn1)c1cc(Cl)c(Oc2ccc(Cl)cc2-c2ccnn2C2CNC2)cc1F [Example 726, 4-[2-(1-azetidin-3-yl-1H-pyrazol-5-yl)-4-chlorophenoxy]-5-chloro-2-fluoro-N-1,3-thiazol-4-ylbenzenesulfonamide] |
| >1 | N#Cc1cc(S(=O)(=O)Nc2nccs2)ccc1Oc1ccc(-n2cccn2)cc1C(F)(F)F [Example 491, 3-cyano-4-[4-(1H-pyrazol-1-yl)-2-(trifluoromethyl)phenoxy]-N-1,3-thiazol-2-ylbenzenesulfonamide] |
| 0.079 | Cn1nccc1-c1cc(F)ccc1Oc1ccc(S(=O)(=O)Nc2ncc(Cl)s2)cc1C#N [Example 596, N-(5-Chloro-1,3-thiazol-2-yl)-3-cyano-4-[4-fluoro-2-(1-methyl-1H-pyrazol-5-yl)phenoxy]benzenesulfonamide] |
| 0.16 | CCc1cc(S(=O)(=O)Nc2cscn2)c(F)cc1Oc1ccc(F)cc1-c1ccnn1C [Example 627, 5-ethyl-2-fluoro-4-[4-fluoro-2-(1-methyl-1H-pyrazol-5-yl)phenoxy]-N-1,3-thiazol-4-ylbenzenesulfonamide] |
| 0.12 | N#Cc1cc(S(=O)(=O)Nc2ncc(Cl)s2)ccc1Oc1ccc(Cl)cc1C1COC1 [Example 588, 4-(4-Chloro-2-oxetan-3-ylphenoxy)-N-(5-chloro-1,3-thiazol-2-yl)-3-cyanobenzenesulfonamide] |
| 4 | CCn1nc(-c2ccc(Oc3ccc(S(=O)(=O)Nc4ncc(F)s4)cc3C#N)c(F)c2)cc1C(F)(F)F [Example 540, 3-cyano-4-{4-[1-ethyl-5-(trifluoromethyl)-1H-pyrazol-3-yl]-2-fluorophenoxy}-N-(5-fluoro-1,3-thiazol-2-yl)benzenesulfonamide] |
| 15 | N#Cc1ccnc(NS(=O)(=O)c2ccc(Oc3ccccc3-c3ccccc3)c(C#N)c2)n1 [Example 433, 4-(biphenyl-2-yloxy)-3-cyano-N-(4-cyanopyrimidin-2-yl)benzenesulfonamide] |
| 0.035 | N#Cc1cc(S(=O)(=O)Nc2ncc(Cl)s2)ccc1Oc1ccc(Cl)cc1C1CCNCC1 [Example 593, 4-(4-Chloro-2-piperidin-4-ylphenoxy)-N-(5-chloro-1,3-thiazol-2-yl)-3-cyanobenzenesulfonamide] |
| 1.6 | N#Cc1cncc(-c2cc(C(F)(F)F)ccc2Oc2ccc(S(=O)(=O)Nc3ncns3)cc2C#N)c1 [Example 284, 3-cyano-4-[2-(5-cyanopyridin-3-yl)-4-(trifluoromethyl)phenoxy]-N-1,2,4-thiadiazol-5-ylbenzenesulfonamide] |
| 1 | Cn1nc(C(F)(F)F)cc1-c1ccc(Oc2cc(F)c(S(=O)(=O)Nc3nncs3)cc2Cl)c(C#N)c1 [Example 297, 5-chloro-4-{2-cyano-4-[1-methyl-3-(trifluoromethyl)-1H-pyrazol-5-yl]phenoxy}-2-fluoro-N-1,3,4-thiadiazol-2-ylbenzenesulfonamide] |
| 5.4 | N#Cc1cc(S(=O)(=O)Nc2cscn2)ccc1Oc1ccc(Cl)cc1-c1ccn(C2CCNCC2)n1 [Example 761, 4-[4-chloro-2-(1-piperidin-4-yl-1H-pyrazol-3-yl)phenoxy]-3-cyano-N-1,3-thiazol-4-ylbenzenesulfonamide] |

same assay, conditions: estimated IC50; hSCN9A HEK cells, PatchXpress platform; Examples 815-1040

| IC50 [µM] | SMILES |
| --- | --- |
| 0.19 | N#Cc1cc(S(=O)(=O)Nc2ncns2)ccc1Oc1ccc(Cl)cc1-c1ccsn1 [Example 905, 4-(4-chloro-2-isothiazol-3-ylphenoxy)-3-cyano-N-1,2,4-thiadiazol-5-ylbenzenesulfonamide] |
| 0.14 | N#Cc1cc(S(=O)(=O)Nc2ncns2)ccc1Oc1ccc(Cl)cc1-c1cccc(C(=O)O)c1 [Example 1002, 5′-chloro-2′-{2-cyano-4-[(1,2,4-thiadiazol-5-ylamino)sulfonyl]phenoxy}biphenyl-3-carboxylic acid] |
| 0.13 | O=S(=O)(Nc1nncs1)c1cc(Cl)c(Oc2ccc(Cl)c(F)c2-c2ccnnc2)cc1F [Example 956, 5-chloro-4-(4-chloro-3-fluoro-2-pyridazin-4-ylphenoxy)-2-fluoro-N-1,3,4-thiadiazol-2-ylbenzenesulfonamide] |
| 0.0016 | CN(C)c1cc(-c2cc(Cl)ccc2Oc2ccc(S(=O)(=O)Nc3ncns3)cc2C#N)ccn1 [Example 1026, 4-{4-Chloro-2-[2-(dimethylamino)pyridin-4-yl]phenoxy}-3-cyano-N-1,2,4-thiadiazol-5-ylbenzenesulfonamide] |
| 0.019 | N#Cc1cc(S(=O)(=O)Nc2ncns2)ccc1Oc1cc(F)c(Cl)cc1-c1ccnnc1 [Example 924, 4-(4-chloro-5-fluoro-2-pyridazin-4-ylphenoxy)-3-cyano-N-1,2,4-thiadiazol-5-ylbenzenesulfonamide] |
